The target of test [1] is T1, ET receptor, rat aortic smooth muscle cells (Rattus norvegicus, UniProt P26684).
T1 construct: endogenous in cells; host or cells: rat aortic smooth muscle cells
T1 sequence (P26684 21-426): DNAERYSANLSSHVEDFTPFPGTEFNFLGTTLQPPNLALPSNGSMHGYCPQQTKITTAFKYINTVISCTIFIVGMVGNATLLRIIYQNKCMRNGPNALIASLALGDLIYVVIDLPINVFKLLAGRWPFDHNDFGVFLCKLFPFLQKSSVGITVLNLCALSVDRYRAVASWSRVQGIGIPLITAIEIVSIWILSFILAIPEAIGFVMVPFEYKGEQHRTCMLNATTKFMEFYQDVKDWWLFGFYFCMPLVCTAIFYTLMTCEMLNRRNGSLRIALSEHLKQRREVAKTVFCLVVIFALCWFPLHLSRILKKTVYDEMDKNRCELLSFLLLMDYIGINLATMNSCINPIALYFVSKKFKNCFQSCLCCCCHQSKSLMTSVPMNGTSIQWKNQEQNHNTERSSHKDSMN
The note with it: reference (23), cited from earlier work.

For test [2], the system named is ET-1-induced [Ca++] flux in rat aortic smooth muscle cells A7r5. As to conditions: reference (23), cited from earlier work.
The subject of test [3] is Aortic Smooth Muscle Cells (A7r5). As to the kind of experiment: Methylene Blue Cell Proliferation assay, Aortic Smooth Muscle Cells (A7r5). As to conditions: 3 days, methylene blue staining, serum free medium, FIG. 3. Format: cell-based, rat. As to the method:
Inhibition of Proliferation of Aortic Smooth Muscle Cells (A7r5) by wax myrtle extract: The Methylene Blue Cell Proliferation assay assess growth inhibition in a cell-based proliferation assay using protein staining as an estimate of relative cell number. For assessment of cell-based potency, A7r5 (20,000 cells/well) were plated in 96-well plates in the growth media. After 24 h, cells were exposed to compounds at different concentrations. A final concentration of 0.2% DMSO was added to the growth media to keep the compounds in solution. After 3 days, relative cell numbers were estimated using methylene blue staining. The absorbance at 620 nm was read in a microplate reader. Data were analyzed using curve-fitting macros written for Microsoft Excel. Concentrations with IC50 were interpolated using the equation: y=Vmax×[1−(x^n/(K^n+x^n))], where “K” is equal to IC50.

Test [4] has the same test system. As to the kind of experiment: Induction of apoptosis by Cell Death ELISA (cytoplasmic histone-DNA fragments) in A7r5 cells. The format is cell-based, rat. The note with it: 24 h treatment, serum free medium, FIG. 4. As for the experimental part:
Induction of Apoptosis in Aortic Smooth Muscle Cells (A7r5) by wax myrtle extract and myriceric acid,: Quantitation of apoptotic cell death was determined by Cell Death ELISA (Roche Biochemicals) that measures cytoplasmic histone-DNAfragments produced during apoptosis. Briefly, A7r5 cells (5×10^3/well)were grown in 96-well plates and treated, in triplicates, for 24 h with the indicated doses of wax myrtle extract and myriceric acid A. After treatment, the 96-well plates were centrifuged (200×g) for 10 min. The supernatant was discarded, lysis buffer was added, and samples were incubated at room temperature. Lysates were transferred to reaction wells and incubated with anti-histone biotin and anti-DNA peroxidase antibodies and incubated at room temperature for 2 h. After three washes, the peroxidase substrate was added to each well, and the plates were read at 405 nm after 15-min incubation. The enrichment of histone-DNAfragments treated cells is expressed as absorbance at 405 nm.

Here are results for one substance from patent publication US20090022821A1, “COMPOSITIONS FROM WAX MYRTLE FOR THE TREATMENT OF CANCER, CARDIOVASCULAR AND INFLAMMATORY DISEASES” (priority 2007, published 2009).

For orientation: Ki means a dissociation constant, usually derived from enzyme kinetics or from competition with a known ligand. For orientation: IC50 means the concentration needed to halve the response being measured.

Regarding Myriceric acid A, the “Ki, binding of radiolabeled ET to rat aortic smooth muscle cells” value in test [1] was 0.04 mg/L. Besides, the Ki in test [1] (read-out: Ki, binding of radiolabeled ET to rat aortic smooth muscle cells) was 0.066 µM. Moreover, in test [2] (repeated as I50 for block of ET signaling pathway, read-out: IC50, inhibition of ET-1-induced [Ca++] flux), the IC50 was 0.011 µM. The “IC50, inhibition of ET-1-induced [Ca++] flux” value in test [2] is 0.0075 mg/L. In addition, the “estimated IC50, growth inhibition of A7r5” value in test [3] is 0.87±0.30 […]μg/ml. Moreover, in test [4], the “apoptosis, enrichment of histone-DNA fragments (absorbance at 405 nm)” value is recorded as “dose-dependent apoptosis”.
